Reference: patent US20210268030A1, “FIBROADIPOGENIC PROGENITOR-DERIVED EXOSOMES FOR REGENERATION OF DYSTROPHIC MUSCLES” (EXOFIX S.R.L., priority 2018, published 2021)

Columns and labels:
[1] = tested on: mdx mice; conditions: young vs old mdx mice; Mozzetta et al. 2013, Saccone et al. 2014; cited from earlier work
[2] = tested on: miRs within FAP-derived exosomes; assay: Taqman-based miR expression microarray of FAP-derived exosomes; assay type: in vivo; conditions: mdx mice treated for 15 days with TSA vs control vehicle
Procedure: Total exosomal RNA was extracted with Total Exosome RNA Protein Isolation Kit (#4478545, Thermo Fisher Scientific). TaqMan MicroRNA Assays were performed according to the manufacturer's recommended protocols (Applied Biosystems) The threshold cycle (Ct) were defined as the fractional cycle number at which the fluorescence passes the fixed threshold. U6 snRNA served as an endogenous control for normalization.
In particular, total exosomal-RNA was retro-transcribed using TaqMan MicroRNA Reverse Transcription Kit (#4366596, ThermoFisher Scientific)
For greater sensitivity, the cDNA was pre-amplified using Taqman PREAMP master mix (#4391128, ThermoFisher Scientific) and Megaplex PreAMP Primers and then amplified using high multiplexed Megaplex Primer Pool (#4444766, ThermoFisher Scientific) and the TaqMan 2× Universal Master Mix II (#4440040, ThermoFisher Scientific) on TaqMan rodent MicroRNA A/B cards Array version 3.0 (#4444909, ThermoFisher Scientific).
We then determined the identity of the miRs within FAP-derived exosomes, by performing a Taqman-based miR expression microarray from exosomes isolated from the supernatant of FAPs derived by mdx mice treated for 15 days with TSA or control vehicle (CTR).

[3] = tested on: mdx muscles; assay: Regeneration, fibrosis and inflammation in mdx tibialis anterior after exosome injection or systemic TSA; assay type: in vivo, mdx mice; conditions: 21 days; exosomes intramuscular every 7 days or TSA daily intra-peritoneal
Procedure: Animals were used at the specified age and treated for the indicated periods with daily intra peritoneal injections of Trichostatin A, TSA (0.6 mg/kg/day; #T8552, Sigma), dissolved in phospate-saline solution or in phospate-saline alone as vehicle control (CTR). Muscle injury was performed by intramuscular injection in Tibliais Anterior (TA) of Cardiotoxin—CTX− (10 μM, 10 mg/mL) (#L8102, Lotaxan Valence, France, http://www.latoxan.com), 3 days before mice sacrifice.
FAPs-derived exosomes at a final concentration of 10 μg in 20 μL of PBS1x (0.5 ug/μl) (#14190-1444, Gibco by life technologies) and its vehicle of control (20 μl PBS1x) were injected 3 times in left TA of young C57BL6/mdx mice: every 7 days for 21 days.
For Masson Trichrome staining to analyze fibrotic tissue, muscle cryo-sections were fixed for 20′ at 56° C. in Bouin's Solution (#HT10132, L Sigma) and then stained in Working Weigert's Iron Hematoxilin solution for 5 min (#HT1079, Sigma), washed in running tap water for 5 min and stained in Biebrich Scarlet-Acid Fucsin for 5 min (#HT151, Sigma). Sections were rinsed in de-ionized water and re-fixed in freshly made Phosphomolybdic/Phosphotungstic/dH2O (1:1:2) acid solution for 8 min (#HT153, #HT152, Sigma), and then they are stained in Aniline Blue solution for 5 min (#HT154, Sigma) and in acid acetic 1% for 2 min (#27221, Sigma). The slides were dehydratated in ethanol (#02860, Sigma) and xilene (#X1040, Sigma) and mounted with EUKITT (#03989, Sigma), then visualized using a Nikon Eclipse 90i: collagen fibers are stained in blue, the nuclei stained in black and the muscle tissue is stained in red. miRNA in situ hybridization was performed as described by Pena (2009) in formaldehyde and carbodiimide (EDC)-fixed TA cryo-sections (0.16M 90 min at RT,_#25952-53-8, Merck KGaA). After washes with 0.2% glycine (#G8898, Sigma) and TBS, cryo-sections were acetylated using 0.1 M triethanolamine and 0.25% acetic anhydride for 25 min at RT (respectively #90275, #A6404, Sigma). This steps are followed by a pre-hybridization using 2× of SSC, 25% formamide (#F9037, Sigma); 0.2% Triton (#X100, Sigma) 30 min at RT and by the over night hybridization at 4° C. with the has-miR206 probe (10 pmol, #18100-01, exiqon) dissolved in a solution of 50% formamide, 250 μg/ml tRNA (#R1753, Sigma), 200 μg/ml SSDNA (#D7656, Sigma), 10% dextran sulphate (#D8906, Sigma) and 2× SSC. The hybridization was followed by specific washes with SSC to eliminate non specific binding of probe (5× SSC 5 min at RT, 1× SSC 15 min at 45° C., 2% BSA in 0.2× SSC 15 min at 4° C., 2× SSC 5 min at RT, TNbuffer 10 min at RT and TNT buffer 15′ at RT) and by the incubation of cryo-section using anti-digoxigenin-ap fab fragments ( 1/100, #11093274910, Roche) dissolved in TNbuffer for 2 hours at RT. To reveal the miRNA probe specific binding cryo-sections, covered from light, were incubating over night at 4° C. with 0.375 mg/ml of NBT and 0.188 mg/ml BCIP dissolved in a solution of TMNbuffer (respectively #11383213001 and #11383221001, Roche).
For immunofluorescence analysis, cryo-sections and cells were fixed in 4% PFA for 10 min and permeabilized with 100% cold acetone (#32201, Sigma) for 6 min at −20° C. or 100% cold Methanol (#32213, Sigma) for 6 min at −20° or with 0.25% Triton for 15 min at RT. Muscle sections were blocked for 1 h with a solution containing 4% BSA (#A7030, Sigma) in PBS. […]

For `CC(/C=C/C(=O)NO)=C\[C@@H](C)C(=O)c1ccc(N(C)C)cc1` [TSA, Trichostatin A], the regeneration [1] is given as “promotes regeneration in young, but not old”, the “miRs in exosomes from FAPs” value [2] is given as “several miRs up-regulated” and the “embryonic-MyHC-positive myofibers (eMyHC)” value [3] is given as “increase”. The “fibers calibre, cross sectional area (CSA)” value [3] was “increase”, the fibrosis [3] was “reduce” and the “inflammation (MPO)” value [3] was “significant reduction”. The “muscle fiber area fraction (MFAF)” value [3] was “increase”.
